Results as given in patent US10227348B2, “Use of 10H-benzo[g]pteridine-2,4-dione derivatives” (TriOptoTec GmbH, priority 2011, dated 2019).

How the values were obtained:
[1] = system: Escherichia coli (ATCC number: 25922); experiment: Phototoxicity test (photodynamic inactivation, CFU/ml by Miles and Misra); format: cell-based; conditions: E. coli; irradiation at 10.5 J/cm^2 (50 mW/cm^2, 210 sec, 390-500 nm); incubation 10 min or 30 min; CFU/ml after 24 h
Protocol: (§1) A sample of the bacterial strain Staphylococcus aureus (ATCC number: 25923) or Escherichia coli (ATCC number: 25922) was taken from a cryogenically frozen culture, isolated on Müller-Hinton agar plates and cultivated under aerobic conditions at 37° C. in an overnight culture. Thereafter, 5 ml of Müller-Hinton liquid medium were inoculated with a smear of the bacterial culture (single colony) and incubated at 37° C. overnight. The bacterial suspension thus obtained was centrifuged at 2500 rpm for 10 min and the bacterial pellet obtained was resuspended in 5 ml of sterile PBS. The optical density of the bacterial suspensions for the phototoxicity tests was OD600nm=0.6, which corresponds to a bacteria count of ˜[…] bacteria per ml. The biochemical analysis and resistance determination of the bacteria were conducted with the VITEK2 system according to the M100-S14 guidelines from the NCCLS (2004).
(§2) 200 μl of a bacterial suspension (bacterial density: 10^8-10^12/ml) were incubated with 200 μl of each of various concentrations of the photosensitizers to be tested at room temperature for 10 min or 30 min. Thereafter, the bacteria were washed twice with distilled water and resuspended in 200 μl of distilled water, and the entire volume was transferred to a 96-well microtiter plate and then irradiated. The photosensitizers used were dissolved in distilled water and various dilution series were prepared (0 μM, 1 μM, 10 μM, 100 μM).
(§3) For sensitization, the Omnicure Series 2000 lamp (Photonics Solutions Inc., Edinburgh, UK) was used, which emits light from a range from 390 nm to 500 nm and has emission maxima Emax at 405 nm and 436 nm. The power applied in each case was 50 mW/cm^2.
(§4) Irradiated and unirradiated samples were used as controls. Likewise run were bacterial suspensions incubated only with photosensitizer (dark control).
(§5) The determination of the colony-forming units (CFU) per ml was conducted by the method published by Miles and Misra (Miles, A A; Misra, S S, Irwin, J O (1938 November). “The estimation of the bactericidal power of the blood.”. The Journal of hygiene 38 (6): 732-49). For this purpose, serial dilutions from 10^−2 to 10^−9 of the corresponding bacterial suspension were prepared. 3×20 μl of each of the corresponding bacterial dilutions were then dripped onto Müller-Hinton plates and incubated at 37° C. for 24 h. Thereafter, the number of surviving colony-forming units (CFU) was determined. Each of the experiments was repeated three times.
(§6) The effectiveness of phototoxicity with respect to bacteria after irradiation was defined according to the following guidelines for hand hygiene in the health sector (Boyce, J. M., and D. Pittet. 2002. Guideline for Hand Hygiene in Health-Care Settings: recommendations of the Healthcare Infection Control Practices Advisory Committee and the HICPAC/SHEA/APIC/IDSA Hand Hygiene Task Force. Infect Control Hosp Epidemiol 23: p. 3-40): • reduction in the CFU/ml by 1 log10 stage≙90% effectiveness • reduction in the CFU/ml by 3 log10 stages≙99.9% effectiveness • reduction in the CFU/ml by 5 log10 stages≙99.999% effectiveness
(§7) For effective inactivation, the decrease of ≥3 log10 stages can therefore be adopted, and S. aureus and E. coli were chosen as examples of representatives from the group of the Gram-positive and Gram-negative bacteria (see Boyce J. M and D. Pittet 2009).

[2] = system: Staphylococcus aureus (ATCC number: 25923); experiment: as above; format: cell-based; conditions: S. aureus; irradiation at 10.5 J/cm^2 (50 mW/cm^2, 210 sec, 390-500 nm); incubation 10 min or 30 min; CFU/ml after 24 h
Protocol: as §1, §2, §3, §4, §5, §6, §7

Row | SMILES | Required concentration to achieve a reduction by ≥3 log10 stages (decrease by 99.9%) [1] | Required concentration to achieve a reduction by ≥3 log10 stages (decrease by 99.9%) [2]
1 | Cc1cc2nc3c(=O)[nH]c(=O)nc-3n(CCN)c2cc1C [FL-01] | 10 μM | 10 μM
2 | COCCn1c2nc(=O)n(CCN)c(=O)c-2nc2cc(C)c(C)cc21 [FL-03] | >100^(*^) μM | 10 μM
3 | COCCn1c2nc(=O)n(CCNC(=N)N)c(=O)c-2nc2cc(C)c(C)cc21 [FL-04] | >100^(*^) μM | 50 μM
4 | Cc1cc2nc3c(=O)[nH]c(=O)nc-3n(CCOCCOCCN)c2cc1C [FL-05] | >100^(*^) μM | 100 μM
